Type in all cases: cell-based
One experiment has as its target human TLR7 (Homo sapiens (Human), UniProt Q9NYK1). The experiment in a line: TLR7 inhibition reporter assay (HEK-Blue, SEAP). The note with it: HEK-Blue cells overexpressing human TLR7, gardiquimod 7.5 μM stimulation. The essentials: (§1)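 Reporter cells, NF-κB/AP-1-driven SEAP; cmpd 0.05 nM–50 μM final, 30 min RT pre-treat; stim gardiquimod 7.5 μM (TLR7), R848 15.9 μM (TLR8), ODN2006 5 nM (TLR9); 22 h 37 °C; % inhibition of SEAP signal.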

In a further experiment the target is human TLR8 (Homo sapiens (Human), UniProt Q9NR97). The experiment in a line: TLR8 inhibition reporter assay (HEK-Blue, SEAP). To be noted: HEK-Blue cells overexpressing human TLR8, R848 15.9 μM stimulation. In a few lines: as §1
A further experiment addresses human TLR9 (Homo sapiens (Human), UniProt Q9NR96). Briefly: TLR9 inhibition reporter assay (HEK-Blue, SEAP). The note with it: HEK-Blue cells overexpressing human TLR9, ODN2006 5 nM stimulation. In a few lines:
as §1

Consider 25 molecules from patent publication US11420958B2, “Aryl and heteroaryl substituted indole compounds” (BRISTOL-MYERS SQUIBB COMPANY, priority 2017, dated 2022).

SMILES strings stand for the structures.

Chain of human TLR7 (Q9NYK1 27-1049): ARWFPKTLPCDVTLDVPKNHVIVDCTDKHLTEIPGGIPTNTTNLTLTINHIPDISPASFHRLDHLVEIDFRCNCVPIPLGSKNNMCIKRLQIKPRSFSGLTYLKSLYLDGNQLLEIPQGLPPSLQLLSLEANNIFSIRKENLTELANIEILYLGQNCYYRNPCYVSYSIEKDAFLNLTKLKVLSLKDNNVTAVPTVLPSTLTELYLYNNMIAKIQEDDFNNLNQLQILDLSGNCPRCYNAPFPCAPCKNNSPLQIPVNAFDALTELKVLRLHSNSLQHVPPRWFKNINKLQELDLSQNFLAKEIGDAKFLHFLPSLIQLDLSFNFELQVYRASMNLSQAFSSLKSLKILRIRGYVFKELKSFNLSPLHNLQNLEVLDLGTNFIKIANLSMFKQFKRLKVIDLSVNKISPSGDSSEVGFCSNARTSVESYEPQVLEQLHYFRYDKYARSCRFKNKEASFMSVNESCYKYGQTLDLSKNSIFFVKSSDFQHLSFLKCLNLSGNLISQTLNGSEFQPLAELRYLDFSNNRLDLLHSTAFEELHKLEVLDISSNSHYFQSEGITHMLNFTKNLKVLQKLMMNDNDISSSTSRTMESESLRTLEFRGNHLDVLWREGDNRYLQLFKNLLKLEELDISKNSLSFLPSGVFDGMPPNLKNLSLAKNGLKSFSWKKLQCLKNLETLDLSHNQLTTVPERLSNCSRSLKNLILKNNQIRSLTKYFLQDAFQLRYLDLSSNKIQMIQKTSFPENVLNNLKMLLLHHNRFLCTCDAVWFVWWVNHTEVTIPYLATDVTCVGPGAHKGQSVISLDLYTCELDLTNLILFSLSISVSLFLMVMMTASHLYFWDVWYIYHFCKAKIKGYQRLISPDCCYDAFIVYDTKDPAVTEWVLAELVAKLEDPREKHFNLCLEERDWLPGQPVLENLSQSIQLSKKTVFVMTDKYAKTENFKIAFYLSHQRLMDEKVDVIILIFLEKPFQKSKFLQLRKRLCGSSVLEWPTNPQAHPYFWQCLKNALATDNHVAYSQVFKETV
Chain of human TLR8 (Q9NR97 27-1041): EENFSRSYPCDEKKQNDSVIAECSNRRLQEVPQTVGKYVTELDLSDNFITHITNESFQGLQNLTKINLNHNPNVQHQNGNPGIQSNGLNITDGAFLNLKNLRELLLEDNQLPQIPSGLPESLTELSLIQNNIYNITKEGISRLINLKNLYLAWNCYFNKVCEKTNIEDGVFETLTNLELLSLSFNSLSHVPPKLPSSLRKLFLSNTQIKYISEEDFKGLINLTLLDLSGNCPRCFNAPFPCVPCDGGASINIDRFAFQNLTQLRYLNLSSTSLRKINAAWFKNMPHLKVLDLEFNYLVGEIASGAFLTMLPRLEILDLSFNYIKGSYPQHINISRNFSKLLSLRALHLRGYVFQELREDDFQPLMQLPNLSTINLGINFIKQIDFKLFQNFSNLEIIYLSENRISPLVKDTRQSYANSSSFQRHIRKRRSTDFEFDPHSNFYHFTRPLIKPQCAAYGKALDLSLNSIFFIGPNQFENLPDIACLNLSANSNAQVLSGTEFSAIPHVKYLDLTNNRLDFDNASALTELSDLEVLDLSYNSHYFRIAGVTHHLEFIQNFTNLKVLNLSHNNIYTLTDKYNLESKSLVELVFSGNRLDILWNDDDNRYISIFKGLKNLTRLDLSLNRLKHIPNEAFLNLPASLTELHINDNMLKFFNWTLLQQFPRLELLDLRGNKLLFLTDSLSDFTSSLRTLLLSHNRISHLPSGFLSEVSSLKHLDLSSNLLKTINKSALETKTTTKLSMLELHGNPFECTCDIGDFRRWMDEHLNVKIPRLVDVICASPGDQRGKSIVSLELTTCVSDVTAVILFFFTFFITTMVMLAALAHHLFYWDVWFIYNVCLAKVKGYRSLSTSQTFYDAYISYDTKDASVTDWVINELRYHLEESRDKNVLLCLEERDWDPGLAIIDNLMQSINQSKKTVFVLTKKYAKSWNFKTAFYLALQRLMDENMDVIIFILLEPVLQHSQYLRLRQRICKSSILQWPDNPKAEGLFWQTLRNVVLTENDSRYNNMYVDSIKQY
Chain of human TLR9 (Q9NR96 26-1032): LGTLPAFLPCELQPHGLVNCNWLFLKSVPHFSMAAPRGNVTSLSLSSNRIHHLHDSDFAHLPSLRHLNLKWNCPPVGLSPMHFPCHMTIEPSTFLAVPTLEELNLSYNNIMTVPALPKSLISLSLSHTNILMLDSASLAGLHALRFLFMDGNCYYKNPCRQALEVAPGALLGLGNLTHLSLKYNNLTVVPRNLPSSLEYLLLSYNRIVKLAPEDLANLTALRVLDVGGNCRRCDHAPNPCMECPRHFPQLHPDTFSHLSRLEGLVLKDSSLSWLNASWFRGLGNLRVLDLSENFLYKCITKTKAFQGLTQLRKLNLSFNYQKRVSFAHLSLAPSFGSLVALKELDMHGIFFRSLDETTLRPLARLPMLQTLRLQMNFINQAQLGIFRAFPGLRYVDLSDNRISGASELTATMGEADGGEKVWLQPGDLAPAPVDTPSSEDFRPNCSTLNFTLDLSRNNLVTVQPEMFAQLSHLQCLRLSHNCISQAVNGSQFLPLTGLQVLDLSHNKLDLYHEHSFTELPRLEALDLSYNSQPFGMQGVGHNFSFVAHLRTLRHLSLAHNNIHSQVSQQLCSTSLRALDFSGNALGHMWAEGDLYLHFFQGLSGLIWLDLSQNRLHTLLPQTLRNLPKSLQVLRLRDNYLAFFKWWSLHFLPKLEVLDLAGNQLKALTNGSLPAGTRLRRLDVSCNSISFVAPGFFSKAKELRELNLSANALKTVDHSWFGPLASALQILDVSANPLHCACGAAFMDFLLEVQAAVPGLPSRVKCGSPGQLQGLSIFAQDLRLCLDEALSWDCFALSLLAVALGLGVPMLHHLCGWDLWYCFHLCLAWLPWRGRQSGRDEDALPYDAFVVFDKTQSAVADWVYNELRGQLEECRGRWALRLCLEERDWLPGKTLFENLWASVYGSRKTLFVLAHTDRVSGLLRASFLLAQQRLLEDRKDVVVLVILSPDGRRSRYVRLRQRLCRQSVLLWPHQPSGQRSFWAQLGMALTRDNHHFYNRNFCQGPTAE

For `Cc1cc(-c2[nH]c3ccc(-c4nnc(C5CCCN(C(C)C)C5)o4)cc3c2CC(F)F)cc(C)n1` (stereo not drawn) [Example 314, 2-(3-(2,2-difluoroethyl)-2-(2,6-dimethylpyridin-4-yl)-1H-indol-5-yl)-5-(1-isopropylpiperidin-3-yl)-1,3,4-oxadiazole], the 50% inhibitory concentration (IC50) against human TLR7 was 43 nM; on human TLR8 it was 11 nM; at human TLR9, 106 nM.

Take `CNC(=O)CN1CCc2cc(-c3ccc4[nH]c(-c5ccnc(C)c5)c(C(C)C)c4c3)sc2C1` [Example 315, 2-(2-(3-isopropyl-2-(2-methylpyridin-4-yl)-1H-indol-5-yl)-4,7-dihydrothieno[2,3-c]pyridin-6(5H)-yl)-N-methylacetamide]: the results for the IC50 against human TLR7, against human TLR8 and against human TLR9 were 93 nM, 17 nM and 47400 nM, respectively.

For `CNC(=O)c1ccc(-c2ccc3[nH]c(-c4cc(C)nc(C)c4)c(C(C)C)c3c2)cn1` [Example 316, 5-(2-(2,6-dimethylpyridin-4-yl)-3-isopropyl-1H-indol-5-yl)-N-methylpicolinamide], the IC50 is 28 nM on human TLR7, 65 nM against human TLR8 and > 50000 nM at human TLR9.

For `Cc1cc(-c2[nH]c3ccc(-c4ccc(C(N)=O)nc4)cc3c2C(C)C)cc(C)n1` [Example 317, 5-(2-(2,6-dimethylpyridin-4-yl)-3-isopropyl-1H-indol-5-yl)picolinamide], the IC50 against human TLR7 was 7.7 nM; against human TLR8, 26 nM; on human TLR9, > 50000 nM.

As to `Cc1cc(-c2[nH]c3ccc(-c4nnc(N)o4)cc3c2C(C)C)cc(C)n1` [Example 318, 5-(2-(2,6-dimethylpyridin-4-yl)-3-isopropyl-1H-indol-5-yl)-1,3,4-oxadiazol-2-amine], the IC50 against human TLR7 was 30 nM; against human TLR8, 34 nM; at human TLR9, 6360 nM.

Consider `Cc1cc(-c2[nH]c3ccc(-c4ccnc(N5CCN(C)CC5)c4)cc3c2C(C)C)cc(C)n1` [Example 319, 2-(2,6-dimethylpyridin-4-yl)-3-isopropyl-5-(2-(4-methylpiperazin-1-yl)pyridin-4-yl)-1H-indole], for which the figures for the IC50 against human TLR7, at human TLR8 and on human TLR9 were 7.1 nM, 9.7 nM and 517 nM, respectively.

On to `Cc1cc(-c2[nH]c3ccc(-c4ccnc(N5CCNCC5)c4)cc3c2C(C)C)cc(C)n1` [Example 320, 2-(2,6-dimethylpyridin-4-yl)-3-isopropyl-5-(2-(piperazin-1-yl)pyridin-4-yl)-1H-indole], for which the values for the IC50 against human TLR7, against human TLR8 and against human TLR9 were 71 nM, 86 nM and 2970 nM, respectively.

`Cc1cc(-c2[nH]c3ccc(-c4ccc(C(=O)N5CCC(NC(C)C)CC5)cc4)cc3c2C(C)C)ccn1` [Example 321, (4-(3-isopropyl-2-(2-methylpyridin-4-yl)-1H-indol-5-yl)phenyl)(4-(isopropylamino)piperidin-1-yl)methanone]: the IC50 against human TLR7 stood at 37 nM; on human TLR8, 17 nM; against human TLR9, 739 nM.

`Cc1cc(-c2[nH]c3ccc(-c4ccc(CO)nc4)cc3c2C(C)C)cc(C)n1` [Example 322, (5-(2-(2,6-dimethylpyridin-4-yl)-3-isopropyl-1H-indol-5-yl)pyridin-2-yl)methanol]: the IC50 on human TLR7 was found to be 13 nM; on human TLR8 it was 27 nM; on human TLR9, 45700 nM.

With `Cc1cc(-c2[nH]c3ccc(-c4nnc(C5CCCNC5)[nH]4)cc3c2C(C)C)cc(C)n1` (stereo not drawn) [Example 323, 2-(2,6-dimethylpyridin-4-yl)-3-isopropyl-5-(5-(piperidin-3-yl)-4H-1,2,4-triazol-3-yl)-1H-indole], the IC50 amounted to 13 nM against human TLR7, 10 nM against human TLR8 and 322 nM against human TLR9.

Take `Cc1cc(-c2[nH]c3ccc(-c4cc5c(s4)CNCC5)cc3c2C(C)C)cc(C)n1` [Example 324, 2-(2-(2,6-dimethylpyridin-4-yl)-3-isopropyl-1H-indol-5-yl)-4,5,6,7-tetrahydrothieno[2,3-c]pyridine]: the IC50 amounted to 2.6 nM against human TLR7, 1.2 nM against human TLR8 and 438 nM at human TLR9.

As for `Cc1cc(-c2[nH]c3ccc(-c4cc5c(s4)CN(C(C)C)CC5)cc3c2C(C)C)cc(C)n1` [Example 325, 2-(2-(2,6-dimethylpyridin-4-yl)-3-isopropyl-1H-indol-5-yl)-6-isopropyl-4,5,6,7-tetrahydrothieno[2,3-c]pyridine], the figures for the IC50 against human TLR7, on human TLR8 and against human TLR9 were 11 nM, 0.5 nM and 282 nM, respectively.

With `Cc1cc(-c2[nH]c3ccc(-c4ccnc(N5CCN(C(C)C)CC5)c4)cc3c2C(C)C)cc(C)n1` [Example 326, 2-(2,6-dimethylpyridin-4-yl)-3-isopropyl-5-(2-(4-isopropylpiperazin-1-yl)pyridin-4-yl)-1H-indole], the IC50 at human TLR7 is 23 nM; against human TLR8 it was 13 nM; against human TLR9, 303 nM.

Take `Cc1cc(-c2[nH]c3ccc(-c4nnc(C5CCCN(C(C)C)C5)o4)cc3c2CC(F)F)cc(C)n1` (stereo not drawn) [Example 327, 2-(3-(2,2-difluoroethyl)-2-(2,6-dimethylpyridin-4-yl)-1H-indol-5-yl)-5-(1-isopropylpiperidin-3-yl)-1,3,4-oxadiazole]: the IC50 on human TLR7 was 26 nM; against human TLR8, 10 nM; at human TLR9 it was 216 nM.

For `Cc1cc(-c2[nH]c3ccc(-c4nnc(C5CCCN(C(C)C)C5)o4)cc3c2CC(F)F)cc(C)n1` (stereo not drawn) [Example 328, 2-(3-(2,2-difluoroethyl)-2-(2,6-dimethylpyridin-4-yl)-1H-indol-5-yl)-5-(1-isopropylpiperidin-3-yl)-1,3,4-oxadiazole], the IC50 against human TLR7 is 48 nM; against human TLR8 it was 30 nM; on human TLR9, 206 nM.

For `Cc1cc(-c2[nH]c3ccc(-c4nc5c(s4)CCN(CC(=O)N(C)C)C5)cc3c2C(C)C)cc(C)n1` [Example 329, 2-(2-(2-(2,6-dimethylpyridin-4-yl)-3-isopropyl-1H-indol-5-yl)-6,7-dihydrothiazolo[4,5-c]pyridin-5(4H)-yl)-N,N-dimethylacetamide], the values for the IC50 against human TLR7, at human TLR8 and against human TLR9 were 20 nM, 3.3 nM and 46700 nM, respectively.

Regarding `CNC(=O)CN1CCc2cc(-c3ccc4[nH]c(-c5cc(C)nc(C)c5)c(C(C)C)c4c3)sc2C1` [Example 330, 2-(2-(2-(2,6-dimethylpyridin-4-yl)-3-isopropyl-1H-indol-5-yl)-4,7-dihydrothieno[2,3-c]pyridin-6(5H)-yl)-N-methylacetamide], the 50% inhibitory concentration (IC50) at human TLR7 is 23 nM; against human TLR8 it was 16 nM; against human TLR9 it was 2210 nM.

For the molecule `CNCC(=O)N1CCc2cc(-c3ccc4[nH]c(-c5cc(C)nc(C)c5)c(C(C)C)c4c3)sc2C1` [Example 331, 1-(2-(2-(2,6-dimethylpyridin-4-yl)-3-isopropyl-1H-indol-5-yl)-4,7-dihydrothieno[2,3-c]pyridin-6(5H)-yl)-2-(methylamino)ethan-1-one], the figures for the IC50 on human TLR7, at human TLR8 and against human TLR9 were 5.2 nM, 4.9 nM and 945 nM, respectively.

For the molecule `Cc1cn2cc(-c3[nH]c4ccc(-c5ccc(N6CCN(C)CC6)nc5)cc4c3C(C)C)ccc2n1` [Example 333, 6-(3-isopropyl-5-(6-(4-methylpiperazin-1-yl)pyridin-3-yl)-1H-indol-2-yl)-2-methylimidazo[1,2-a]pyridine], the figures for the IC50 at human TLR7, against human TLR8 and at human TLR9 were 14 nM, 91 nM and 114 nM, respectively.

As for `Cc1cn2cc(-c3[nH]c4ccc(-c5ccc(N6CCNCC6)nc5)cc4c3C(C)C)ccc2n1` [Example 334, 6-(3-isopropyl-5-(6-(piperazin-1-yl)pyridin-3-yl)-1H-indol-2-yl)-2-methylimidazo[1,2-a]pyridine], the figures for the IC50 against human TLR7, against human TLR8 and at human TLR9 were 45 nM, 214 nM and 672 nM, respectively.

For the molecule `Cc1cc(-c2[nH]c3ccc(-c4ccc(N5CC(C)OC(C)C5)nc4)cc3c2C(C)C)cc(C)n1` (stereo not drawn) [Example 335, 4-(5-(2-(2,6-dimethylpyridin-4-yl)-3-isopropyl-1H-indol-5-yl)pyridin-2-yl)-2,6-dimethylmorpholine], the IC50 came to 166 nM against human TLR7, 106 nM against human TLR8 and 38100 nM at human TLR9.

`Cc1cc(-c2[nH]c3ccc(-c4ccc(N5CCCC5)nc4)cc3c2C(C)C)cc(C)n1` [Example 336, 2-(2,6-dimethylpyridin-4-yl)-3-isopropyl-5-(6-(pyrrolidin-1-yl)pyridin-3-yl)-1H-indole]: the 50% inhibitory concentration (IC50) is 41 nM at human TLR7, 15 nM at human TLR8 and 2340 nM against human TLR9.

Turning to `Cc1cc(-c2[nH]c3ccc(-c4ccc(N5CCC(N(C)C)CC5)nc4)cc3c2C(C)C)cc(C)n1` [Example 337, 1-(5-(2-(2,6-dimethylpyridin-4-yl)-3-isopropyl-1H-indol-5-yl)pyridin-2-yl)-N,N-dimethylpiperidin-4-amine], the half-maximal inhibitory concentration (IC50) against human TLR7 is 6.7 nM; against human TLR8, 4.9 nM; on human TLR9, 220 nM.

For `Cc1cc(-c2[nH]c3ccc(-c4ccc(N5CCC5)nc4)cc3c2C(C)C)cc(C)n1` [Example 338, 5-(6-(azetidin-1-yl)pyridin-3-yl)-2-(2,6-dimethylpyridin-4-yl)-3-isopropyl-1H-indole], the IC50 came out at 18 nM against human TLR7, 31 nM against human TLR8 and 46500 nM on human TLR9.

Turning to `Cc1cc(-c2[nH]c3ccc(-c4ccc(N5CCN(CCO)CC5)nc4)cc3c2C(C)C)cc(C)n1` [Example 339, 2-(4-(5-(2-(2,6-dimethylpyridin-4-yl)-3-isopropyl-1H-indol-5-yl)pyridin-2-yl)piperazin-1-yl)ethan-1-ol], the results for the IC50 against human TLR7, on human TLR8 and against human TLR9 were 8.3 nM, 5.4 nM and 523 nM, respectively.
